{"source": "patent EP4752149A1", "about": "“OXYGEN-CONTAINING FUSED TRICYCLIC DERIVATIVE, AND PREPARATION METHOD THEREFOR AND USE THEREOF” (Tuojie Biotech (Shanghai) Co., Ltd., priority 2023, dated 2025)", "assay_type_in_all_cases": "cell-based", "key": {"[1]": {"tested_on": "Ovarian cancer cells (OVCAR3)", "assay": "Inhibitory activity against ovarian cancer cells (OVCAR3), CTG cell viability", "settings": "Homo sapiens, OVCAR-3, 168 h, 7 days with compound", "method": "Ovarian cancer cells (OVCAR3) were cultured using an RPMI 1640 culture medium containing 10% FBS in a cell incubator (37 °C, 5% CO2). On day one, the cells were plated in a 384-well plate at a cell concentration of 800 cells/well and cultured overnight in an incubator. On day two, the cells were treated with compounds. The highest compound concentration was 10 µM and was diluted 3-fold to obtain 9 concentrations, and the final concentration of DMSO was 0.1%. After the cells were cultured in the incubator for another 7 days, the cell viability was tested using a CTG Cell Viability Detection Reagent (MCE); the testing method was consistent with the method provided by the kit. Data were processed using GraphPad Prism 8, and IC50 was calculated. [formula] X: the logarithm of the compound concentration; Y: inhibition%. Table 2. The IC50 (nM) of compounds of the present disclosure against OVCAR3"}, "[2]": {"tested_on": "Human non-small cell lung cancer cells (A549)", "assay": "Inhibitory activity against human non-small cell lung cancer cells (A549), CTG cell viability", "settings": "Homo sapiens, 120 h, 5 days with compound", "method": "(§1) Human non-small cell lung cancer cells (A549) were cultured using an F12K culture medium containing 10% FBS in a cell incubator (37 °C, 5% CO2). On day one, the cells were plated in a 384-well plate at a cell concentration of 300 cells/well and cultured overnight in an incubator. On day two, the cells were treated with compounds. The highest compound concentration was 10 µM and was diluted 3-fold to obtain 9 concentrations, and the final concentration of DMSO was 0.2%. After the cells were cultured in the incubator for another 5 days, the cell viability was tested using a CTG Cell Viability Detection Reagent; the testing method was consistent with the method provided by the kit. Data were processed using XLFit, and IC50 was calculated. [formula] X: the logarithm of the compound concentration; Y: % inhibition. Table 10. The IC50 (nM) of a compound of the present disclosure against A549"}, "[3]": {"tested_on": "Human prostate cancer cells (22RV1)", "assay": "Inhibitory activity against human prostate cancer cells (22RV1), CTG cell viability", "settings": "Homo sapiens, 120 h, 5 days with compound", "method": "as §1, with “prostate” for “non-small cell lung”, “(22RV1)” for “(A549)”, “RPMI 1640” for “F12K”, “500” for “300”, “12.” for “10.”, “22RV1” for “A549”"}}}
{"smiles": "C[C@H]1COc2c(-c3nc(Nc4ccc(N5CCOCC5=O)cc4F)ncc3Cl)cc(F)c3nc(C(C)(C)O)n1c23", "note": "[Example 1, (S)-4-(4-((5-Chloro-4-(8-fluoro-2-(2-hydroxypropan-2-yl)-3-methyl-3,4-dihydro-5-oxa-1,2a-diazaacenaphthylen-6-yl)pyrimidin-2-yl)amino)-3-fluorophenyl)morpholin-3-one]", "values": [{"measurement": "IC50", "setting": "[1]", "result": 672, "unit": "nM"}, {"measurement": "IC50", "setting": "[2]", "result": 236, "unit": "nM"}, {"measurement": "IC50", "setting": "[3]", "result": 80.3, "unit": "nM"}]}
